Source: ChEMBL document CHEMBL1201862, “PubChem BioAssay data set” (2004)
Calls of active or inactive are those of the source.

What was measured:
[1] = control 3'UTR Renilla luciferase suppression, dose response, counter-screen for Shn3 inhibitor project, cell-based, Clone20-Shn3RL, cherry-picked (AID 624133); assay type: functional
[2] = Shn3 3'UTR reporter inhibitors, dose response, cell-based, Clone20 osteoblasts, firefly luciferase, cherry-picked (AID 624132); assay type: functional;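 further: firefly luciferase luminescence from reporter carrying the Shn3 3'UTR in osteoblasts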
HEK293 [3] = test: cytotoxicity in HEK293T NF-kB-Luc cells, SAR follow-up, cytotoxicity control for NF-kB activator project, cell-based, resazurin fluorescence (AID 493251); assay type: functional; conditions: Homo sapiens
[4] = HepG2 cell cytotoxicity, dose response, cytotoxicity control for Shn3 inhibitor project, CellTiter-Glo, cherry-picked (AID 624134); assay type: functional, cell-based
Jurkat = test: SAR Analysis of small molecule inhibitors of T-cell specific antigen receptor-induced NF-kB activation in a Jurkat cell line using a luminescence assay - Set 2. [Related pubchem assays (depositor defined):AID435003, AID435012, AID465]; assay type: functional, cell-based; conditions: Homo sapiens
[5] = target: T1, Heat shock factor protein 1 (Mus musculus, UniProt P38532); test: HSF1 potentiators in luciferase reporter cells, confirmation, cell-based, NIH3T3, luminescence, dose retest (AID 435004); assay type: functional;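 further: stress induced by proteasome inhibitor MG132 added 30 min after compound; luciferase reporter driven by HSF1 response element in NIH3T3 cells; actives raise luminescence as potentiators of the MG132 stress response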
T1 sequence (P38532 whole entry): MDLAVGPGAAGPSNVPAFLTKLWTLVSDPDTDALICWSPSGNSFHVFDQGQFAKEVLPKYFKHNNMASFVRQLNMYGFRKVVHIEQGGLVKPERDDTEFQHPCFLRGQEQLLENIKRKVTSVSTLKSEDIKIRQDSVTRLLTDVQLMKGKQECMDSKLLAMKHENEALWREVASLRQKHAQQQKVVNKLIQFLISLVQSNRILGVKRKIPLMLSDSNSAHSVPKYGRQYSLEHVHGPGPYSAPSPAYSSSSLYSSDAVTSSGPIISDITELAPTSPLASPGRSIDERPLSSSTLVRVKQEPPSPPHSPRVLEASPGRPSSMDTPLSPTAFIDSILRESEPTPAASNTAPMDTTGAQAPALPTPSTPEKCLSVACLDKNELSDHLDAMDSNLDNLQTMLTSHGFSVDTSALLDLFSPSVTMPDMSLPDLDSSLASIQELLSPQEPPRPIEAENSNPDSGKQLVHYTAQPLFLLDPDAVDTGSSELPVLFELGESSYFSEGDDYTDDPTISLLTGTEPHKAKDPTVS

[6] = inhibitors of firefly luciferase expression or activity, dose response, H4 neuroglioma cells, luminescence (AID 1990); assay type: functional, cell-based
HEK293 [7] = test: SAR Analysis of small molecule inhibitors of T-cell specific antigen receptor-induced NF-kB activation in a HEK-293T cell line using a luminescence assay - Set 2. [Related pubchem assays (depositor defined):AID435003, AID435012, AID489026]; assay type: functional, cell-based; conditions: Homo sapiens
[8] = target: T2, Microphthalmia-associated transcription factor (Homo sapiens, UniProt O75030); test: TRPM1 promoter luciferase signal decrease, dose response, MITF inhibitor project, cell-based, SK-MEL-5, cherry-picked, set 3 (AID 493073); assay type: functional
T2 sequence (O75030 whole entry): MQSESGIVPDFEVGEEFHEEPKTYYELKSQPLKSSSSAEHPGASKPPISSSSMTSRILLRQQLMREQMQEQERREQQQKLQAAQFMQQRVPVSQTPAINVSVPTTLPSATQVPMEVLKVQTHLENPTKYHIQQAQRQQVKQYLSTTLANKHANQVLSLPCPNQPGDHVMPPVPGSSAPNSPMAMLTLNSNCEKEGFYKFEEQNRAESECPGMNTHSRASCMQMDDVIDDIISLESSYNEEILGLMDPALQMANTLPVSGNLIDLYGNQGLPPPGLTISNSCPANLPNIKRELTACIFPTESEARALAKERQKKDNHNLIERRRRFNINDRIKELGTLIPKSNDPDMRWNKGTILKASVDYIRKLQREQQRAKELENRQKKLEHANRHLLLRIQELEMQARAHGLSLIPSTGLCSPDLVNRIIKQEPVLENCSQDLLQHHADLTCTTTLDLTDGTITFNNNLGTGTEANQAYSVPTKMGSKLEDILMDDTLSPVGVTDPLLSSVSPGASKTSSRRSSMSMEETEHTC

[9] = target: T3, Beta-2 adrenergic receptor (Homo sapiens, UniProt P07550); test: beta2AR agonists driving receptor internalization, dose response, cell-based, FAP fluorogen, flow cytometry, cherry pick 1 (AID 588763); assay type: functional
[10] = inhibitors of SNCA 5'UTR-driven reporter translation, confirmation, H4 neuroglioma cells, luminescence (AID 1988); assay type: functional, cell-based
[11] = Luminescence Cell-Based Dose Response HTS to Identify Inhibitors of 5'UTR Stem-Loop Driven Prion Protein mRNA Translation in H4 Neuroglioblastoma Cells. [Related pubchem assays: 1827 (Project Summary), 1813 (Primary HTS)]; assay type: functional
[12] = target: T3, Beta-2 adrenergic receptor; test: Dose response for HTS for Beta-2AR agonists via FAP method from Powderset1.; assay type: functional
[13] = target: T4, Nuclear receptor subfamily 0 group B member 1 (Homo sapiens, UniProt P51843); test: Luminescence-based cell-based high throughput dose response assay for inhibitors of the orphan nuclear receptor subfamily 0, group B, member 1 (DAX1; NR0B1). [Related pubchem assays (depositor defined):AID504766, AID504790]; assay type: functional
T4 sequence (P51843 whole entry): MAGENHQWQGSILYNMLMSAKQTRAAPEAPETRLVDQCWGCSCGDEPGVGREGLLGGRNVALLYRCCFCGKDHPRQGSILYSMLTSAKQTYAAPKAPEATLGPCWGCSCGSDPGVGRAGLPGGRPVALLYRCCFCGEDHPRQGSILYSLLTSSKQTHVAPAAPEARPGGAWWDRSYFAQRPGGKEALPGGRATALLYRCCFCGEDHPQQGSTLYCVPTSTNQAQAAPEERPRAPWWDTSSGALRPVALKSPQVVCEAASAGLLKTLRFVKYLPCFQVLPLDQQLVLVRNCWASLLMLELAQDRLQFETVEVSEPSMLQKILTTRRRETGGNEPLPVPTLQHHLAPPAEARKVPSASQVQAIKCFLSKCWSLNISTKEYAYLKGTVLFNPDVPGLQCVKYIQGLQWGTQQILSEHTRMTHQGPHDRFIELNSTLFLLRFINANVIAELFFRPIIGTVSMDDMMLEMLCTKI

HEK293 [14] = test: cells; assay type: functional, cell-based; conditions: Homo sapiens
Hexokinase HKDC1 = target: T5, Hexokinase HKDC1 (Homo sapiens, UniProt Q2TB90); test: SAR analysis of small molecule inhibitors of hexokinase domain containing I (HKDC1). [Related pubchem assays (depositor defined):AID493160, AID493190]; assay type: functional
T5 sequence (Q2TB90 whole entry): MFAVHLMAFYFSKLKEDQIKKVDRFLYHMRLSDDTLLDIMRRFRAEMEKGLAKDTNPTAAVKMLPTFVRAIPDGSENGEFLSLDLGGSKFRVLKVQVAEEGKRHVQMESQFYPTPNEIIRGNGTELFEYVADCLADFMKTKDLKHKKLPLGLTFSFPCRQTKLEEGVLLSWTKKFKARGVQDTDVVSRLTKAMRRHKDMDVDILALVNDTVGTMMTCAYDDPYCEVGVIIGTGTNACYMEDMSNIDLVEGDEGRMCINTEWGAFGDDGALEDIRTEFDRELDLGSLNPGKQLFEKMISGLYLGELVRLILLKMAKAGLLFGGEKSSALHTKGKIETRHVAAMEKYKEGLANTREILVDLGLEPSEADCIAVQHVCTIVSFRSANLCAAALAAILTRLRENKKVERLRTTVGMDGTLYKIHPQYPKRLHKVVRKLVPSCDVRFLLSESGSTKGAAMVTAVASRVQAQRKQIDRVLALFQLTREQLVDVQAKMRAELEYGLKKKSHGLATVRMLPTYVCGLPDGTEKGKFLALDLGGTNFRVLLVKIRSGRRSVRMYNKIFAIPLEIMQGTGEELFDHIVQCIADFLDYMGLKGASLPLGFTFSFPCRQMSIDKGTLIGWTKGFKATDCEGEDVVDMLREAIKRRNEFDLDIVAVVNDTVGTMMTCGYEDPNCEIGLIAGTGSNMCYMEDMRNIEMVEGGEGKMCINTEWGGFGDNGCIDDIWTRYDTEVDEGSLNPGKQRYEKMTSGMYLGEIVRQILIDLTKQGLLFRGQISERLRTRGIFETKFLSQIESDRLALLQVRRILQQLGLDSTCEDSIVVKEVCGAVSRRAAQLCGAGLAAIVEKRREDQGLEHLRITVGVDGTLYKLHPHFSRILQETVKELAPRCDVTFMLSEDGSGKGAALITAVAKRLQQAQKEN

Hexokinase-1 = target: T6, Hexokinase-1 (Homo sapiens, UniProt P19367); test: SAR analysis of small molecule inhibitors of hexokinase domain containing I (HKDC1) in the hexokinase 1 selectivity assay. [Related pubchem assays (depositor defined):AID493160, AID493190]; assay type: functional
T6 sequence (P19367 whole entry): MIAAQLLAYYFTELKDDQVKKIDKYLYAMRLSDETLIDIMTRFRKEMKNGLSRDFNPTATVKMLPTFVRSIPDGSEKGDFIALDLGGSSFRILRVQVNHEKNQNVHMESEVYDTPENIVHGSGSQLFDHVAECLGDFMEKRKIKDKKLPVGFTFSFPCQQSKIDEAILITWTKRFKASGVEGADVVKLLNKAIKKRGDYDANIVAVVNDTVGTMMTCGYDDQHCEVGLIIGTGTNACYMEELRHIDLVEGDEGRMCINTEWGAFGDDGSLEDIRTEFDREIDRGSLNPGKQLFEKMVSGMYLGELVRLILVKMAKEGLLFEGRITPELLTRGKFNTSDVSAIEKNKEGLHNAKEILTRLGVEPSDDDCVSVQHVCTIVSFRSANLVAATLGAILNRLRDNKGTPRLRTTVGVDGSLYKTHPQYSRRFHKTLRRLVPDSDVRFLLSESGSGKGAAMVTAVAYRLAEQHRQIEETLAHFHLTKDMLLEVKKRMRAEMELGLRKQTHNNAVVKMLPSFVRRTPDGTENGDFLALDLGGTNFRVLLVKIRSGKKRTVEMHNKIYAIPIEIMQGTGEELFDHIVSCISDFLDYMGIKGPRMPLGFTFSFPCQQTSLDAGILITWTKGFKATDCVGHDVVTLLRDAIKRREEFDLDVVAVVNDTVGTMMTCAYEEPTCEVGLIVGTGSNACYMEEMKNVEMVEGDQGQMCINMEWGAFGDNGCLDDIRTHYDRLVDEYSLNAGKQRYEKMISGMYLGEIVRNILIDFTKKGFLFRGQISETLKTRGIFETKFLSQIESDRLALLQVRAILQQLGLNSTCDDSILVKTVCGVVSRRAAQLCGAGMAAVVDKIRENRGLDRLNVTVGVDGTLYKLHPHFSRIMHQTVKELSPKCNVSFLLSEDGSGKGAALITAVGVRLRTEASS

T3 sequence (P07550 whole entry): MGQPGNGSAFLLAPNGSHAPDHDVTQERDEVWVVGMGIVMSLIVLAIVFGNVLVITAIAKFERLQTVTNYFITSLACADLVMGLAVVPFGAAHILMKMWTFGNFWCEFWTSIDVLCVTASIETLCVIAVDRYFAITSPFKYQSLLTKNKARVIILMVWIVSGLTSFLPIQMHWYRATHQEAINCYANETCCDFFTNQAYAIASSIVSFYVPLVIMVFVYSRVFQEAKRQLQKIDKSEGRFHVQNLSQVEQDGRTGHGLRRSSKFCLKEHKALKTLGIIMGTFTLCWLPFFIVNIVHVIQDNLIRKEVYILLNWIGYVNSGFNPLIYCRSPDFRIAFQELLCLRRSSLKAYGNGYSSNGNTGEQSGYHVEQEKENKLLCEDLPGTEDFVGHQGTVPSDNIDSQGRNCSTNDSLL

O=C(Nc1ccc(-c2nc3ncccc3o2)cc1)c1ccc([N+](=O)[O-])o1
AC50 [1]: 11 µM (active)
AC50 [2]: 1.34 µM (active)
IC50 (HEK293 [3]): > 80 µM (inactive)
AC50 [4]: 22.6 µM (active)
IC50 (Jurkat): > 79 µM (inactive)
EC50 [5]: 7.12 µM (active)
EC50 [6]: > 120 µM (not active)
IC50 (HEK293 [7]): > 80 µM (inactive)
AC50 [8]: 3.63 µM (active)
EC50 [9]: 0.636 µM (active)
EC50 [10]: > 60 µM (not active)
EC50 [11]: > 120 µM (not active)
EC50 [12]: 0.152 µM (active)

COc1cccc(CNC(=O)CN(C)S(=O)(=O)c2ccc(Br)s2)c1
IC50 [13]: > 67.5 µM (inactive)
IC50 (HEK293 [14]): 24.6 µM (inactive)

O=C(Nc1cccc(C(F)(F)F)c1)c1cccc(NC(=O)c2ccc3ccccc3n2)c1
IC50 (Hexokinase HKDC1): > 80 µM (inactive)
IC50 (Hexokinase-1): > 80 µM (inactive)
